{"source": "paper PMC11489133", "about": "“Obicetrapib exhibits favorable physiochemical and pharmacokinetic properties compared to previous cholesteryl ester transfer protein inhibitors: An integrated summary of results from non‐human primate studies and clinical trials” (Pharmacology Research & Perspectives, 2024)", "key": {"[1]": {"set-up": "method as in PMID 24628035", "details": "cited from earlier work; for t ½ (terminal half‐life): arithmetic mean (CV%)"}, "[2]": {"assay": "ROSE Phase II trial, plasma concentrations of obicetrapib", "assay_type": "in vivo, humans", "details": "for % Change in Plasma Level: Week 8 to Week 23, mean (SD); for concentration at 8 weeks / concentration at 23 weeks: both sexes, human, plasma, oral, read-out: Mean (SD) Plasma Level; for concentration at 8 weeks: Week 8 (EOT); for concentration at 23 weeks: Week 23, fifteen weeks after the end of treatment", "procedure": "(§1) The PK parameters and the effect of food on the bioavailability of obicetrapib in humans have been examined in both Phase I[9] (TA‐8995‐09 CSR, NewAmsterdam Pharma) and Phase II trials.[10], [11], [12], [13] The trials were performed in accordance with the Declaration of Helsinki, Good Clinical Practice Guidelines, and applicable regulatory requirements. Approval was obtained from the relevant ethical review boards for each site. All volunteers provided written informed consent prior to participation. PK parameters were determined using WinNonlin software, version 4.1 or higher (Pharsight/Certara Corporation, USA). Concentrations of obicetrapib were summarized for each treatment group using descriptive statistics.\nROSE (NCT04753606) was a placebo‐controlled, double‐blind, randomized trial conducted to evaluate the efficacy of obicetrapib as an adjunct to high‐intensity statin therapy for reducing LDL‐C and ApoB levels.[11] A secondary endpoint of the trial included assessing plasma concentrations of obicetrapib during and after the end of treatment. […] One hundred twenty participants (mean age: 61.8 years; 55.8% male; 76.7% White; mean BMI: 31.1 kg/m^2) were enrolled at 17 clinical research sites in the United States and randomized in a 1:1:1 ratio to one of three treatment groups: (1) placebo; (2) 5 mg obicetrapib; or (3) 10 mg obicetrapib. The participants were instructed to take their assigned treatment orally with food once daily at approximately the same time each morning for the 8‐week treatment period. After randomization, participants returned to the clinical research site during Weeks 4 and 8 (end of treatment) for PK assessments. Additionally, participants completed follow‐up visits at four, eight, and 15 weeks after the end of treatment (Weeks 12, 16, and 23) for PK assessments. Of the 120 participants randomized in ROSE, 119 (99.2%) completed treatment; all 120 participants randomized were included in the modified Intent‐to‐Treat (mITT) analysis. The PK population (n = 80) included all randomized participants in the mITT population assigned to the two obicetrapib dose groups who had sufficient blood samples collected for valid estimation of PK parameters. Seventy‐seven (96.3%), 79 (98.8%), and 79 (98.8%) participants in the PK population for ROSE were included in the 4‐, 8‐, and 15‐week post‐end of treatment PK analyses, respectively (TA‐8995‐201 CSR, NewAmsterdam Pharma)."}, "[3]": {"assay": "ROSE2 Phase II trial, plasma concentrations of obicetrapib", "assay_type": "in vivo, humans", "details": "for % Change in Plasma Level: Week 12 to Week 16, mean (SD); for concentration at 12 weeks / concentration at 16 weeks: both sexes, human, plasma, oral, read-out: Mean (SD) Plasma Level; for concentration at 12 weeks: Week 12 (EOT), on‐treatment PK population; for concentration at 16 weeks: Week 16, four weeks after the end of treatment", "procedure": "as §1\nROSE2 (NCT05266586) was a placebo‐controlled, double‐blind, randomized trial conducted to evaluate the efficacy, safety, and tolerability of obicetrapib or obicetrapib plus ezetimibe as an adjunct to high‐intensity statin therapy.[12] An exploratory endpoint of the trial included assessing the plasma concentrations of obicetrapib during treatment and 4 weeks after the end of treatment. […] One hundred nineteen participants (mean age: 62.6 years; 63.9% male; 84.5% White; mean BMI: 30.9 kg/m^2) were enrolled at 18 clinical research sites in the United States and randomized in a 1:1:1 ratio to one of three treatment groups: (1) placebo; (2) obicetrapib monotherapy (one 10 mg obicetrapib tablet plus one placebo capsule for ezetimibe); or (3) combination therapy (one 10 mg obicetrapib tablet plus one 10 mg ezetimibe capsule). The participants were instructed to take their assigned treatment orally with water once daily at approximately the same time each morning for the 12‐week treatment period. After randomization, participants returned to the clinical research site during Weeks 4 and 12 (end of treatment) for safety and PK assessments. Participants also completed a follow‐up visit 4 weeks after the end of treatment (Week 16) for final safety and PK assessments. Of the 119 participants randomized, 97 (81.5%) were included in an on‐treatment analysis, which excluded participants with plasma concentrations of obicetrapib <100 ng/mL at either or both Week 4 and Week 12.[12] The on‐treatment PK population (n = 57) included all randomized participants in the mITT population assigned to the two obicetrapib dose groups who had sufficient blood samples collected for valid estimation of PK parameters and excluded participants with plasma concentrations of obicetrapib <100 ng/mL at either or both Week 4 and Week 12. Fifty‐six (98.2%) participants in the on‐treatment PK population were included in the 4‐week post‐end of treatment PK analysis (TA‐8995‐202 CSR, NewAmsterdam Pharma)."}, "[4]": {"details": "single dose 5 mg, after a standard breakfast, geometric mean (CV%)"}, "[5]": {"details": "single dose 10 mg, after a standard breakfast, geometric mean (CV%)"}, "[6]": {"details": "Obicetrapib 5 mg + high‐intensity statin"}, "[7]": {"details": "Obicetrapib 10 mg + high‐intensity statin"}, "[8]": {"details": "Obicetrapib 10 mg + ezetimibe 10 mg + high‐intensity statin"}}, "note": "Like-named read-outs stand apart in the source and are kept apart here. Marks after values point to notes of the source that are not given here.", "data": [{"compound": "CCOC(=O)N1c2ccc(C(F)(F)F)cc2C(N(Cc2cc(C(F)(F)F)cc(C(F)(F)F)c2)c2ncc(OCCCC(=O)O)cn2)CC1CC", "note": "(stereo not drawn) [Obicetrapib]", "values": [{"measurement": "t ½ (terminal half‐life)", "setting": "[1]; multiple daily doses 5 mg, after the last dose", "result": "148 (30%) h"}, {"measurement": "t max", "setting": "[1]; multiple daily doses 5 mg, after the last dose, median (minimum, maximum)", "result": "4 (3, 8) h"}, {"measurement": "C max", "setting": "[1]; multiple daily doses 5 mg, steady state, after the last dose, geometric mean (CV%)", "result": "436 (18%) ng/mL"}, {"measurement": "AUC (0, τ, ss)", "setting": "[1]; multiple daily doses 5 mg, steady state, τ 24 h, geometric mean (CV%)", "result": "7606 (20%) ^f ng·h/mL"}, {"measurement": "Rac (accumulation ratio, AUC(0,τ,ss)/AUC(0–24 h))", "setting": "[1]; multiple daily doses 5 mg", "result": "4.3 (1.1)"}, {"measurement": "Rac (accumulation ratio, AUC(0,τ,ss)/AUC(0–24 h))", "setting": "[1]; multiple daily doses 5 mg, listed as obicetrapib", "result": 4.3}, {"measurement": "t ½ (terminal half‐life)", "setting": "[1]; multiple daily doses 10 mg, after the last dose", "result": "131 (19%) h"}, {"measurement": "t max", "setting": "[1]; multiple daily doses 10 mg, after the last dose, median (minimum, maximum)", "result": "6 (4, 8) h"}, {"measurement": "C max", "setting": "[1]; multiple daily doses 10 mg, steady state, after the last dose, geometric mean (CV%)", "result": "692 (23%) ng/mL"}, {"measurement": "Rac (accumulation ratio, AUC(0,τ,ss)/AUC(0–24 h))", "setting": "[1]; multiple daily doses 10 mg", "result": "3.7 (0.8)"}, {"measurement": "Rac (accumulation ratio, AUC(0,τ,ss)/AUC(0–24 h))", "setting": "[1]; multiple daily doses 10 mg, listed as obicetrapib", "result": 3.7}, {"measurement": "t ½ (terminal half‐life)", "setting": "[1]; multiple daily doses 25 mg, after the last dose", "result": "121 (23%) h"}, {"measurement": "t max", "setting": "[1]; multiple daily doses 25 mg, after the last dose, median (minimum, maximum)", "result": "4 (2, 6) h"}, {"measurement": "C max", "setting": "[1]; multiple daily doses 25 mg, steady state, after the last dose, geometric mean (CV%)", "result": "1398 (18%) ng/mL"}, {"measurement": "Rac (accumulation ratio, AUC(0,τ,ss)/AUC(0–24 h))", "setting": "[1]; multiple daily doses 25 mg", "result": "2.1 (0.3)"}, {"measurement": "Rac (accumulation ratio, AUC(0,τ,ss)/AUC(0–24 h))", "setting": "[1]; multiple daily doses 25 mg, listed as obicetrapib", "result": 2.1}, {"measurement": "t max", "setting": "[1]; multiple daily doses, all doses except 10 mg", "result": 4, "unit": "h"}, {"measurement": "obicetrapib in urine", "setting": "[1]; multiple doses, any participant", "result": "not detected"}, {"measurement": "AUC (0–24 h)", "setting": "[1]; [4]", "result": "1796 (14%) ng·h/mL"}, {"measurement": "C max", "setting": "[1]; [4]", "result": "116 (13%) ng/mL"}, {"measurement": "t max", "setting": "[1]; single dose 5 mg, after a standard breakfast, median (minimum, maximum)", "result": "6 (4, 8) h"}, {"measurement": "AUC (0–24 h)", "setting": "[1]; [5]", "result": "3471 (18%) ng·h/mL"}, {"measurement": "C max", "setting": "[1]; [5]", "result": "245 (14%) ng/mL"}, {"measurement": "t max", "setting": "[1]; single dose 10 mg, after a standard breakfast, median (minimum, maximum)", "result": "6 (4, 8) h"}, {"measurement": "C max", "setting": "[1]; single dose 25 mg, after a standard breakfast, geometric mean (CV%)", "result": "750 (19%) ng/mL"}, {"measurement": "t max", "setting": "[1]; single dose 25 mg, after a standard breakfast, median (minimum, maximum)", "result": "6 (3, 8) h"}, {"measurement": "t max", "setting": "[1]; single dose regardless of the strength of the dose (1–25 mg)", "result": 6, "unit": "h"}, {"measurement": "time in which plasma levels were approaching steady state", "setting": "[1]; visual inspection of trough concentrations, multiple once daily doses", "result": "within one to two weeks"}, {"measurement": "% Change in Plasma Level", "setting": "[2]; [6]", "result": "−98.5 (1.7) %"}, {"measurement": "% Change in Plasma Level", "setting": "[2]; Obicetrapib 5 mg + high‐intensity statin, listed as obicetrapib", "result": "−98.5", "unit": "%"}, {"measurement": "% Change in Plasma Level", "setting": "[2]; [7]", "result": "−98.4 (1.9) %"}, {"measurement": "concentration at 8 weeks", "setting": "[2]; [6]", "result": 254, "unit": "ng/mL"}, {"measurement": "concentration at 23 weeks", "setting": "[2]; [6]", "result": 2.9, "unit": "ng/mL"}, {"measurement": "concentration at 8 weeks", "setting": "[2]; [7]", "result": 395, "unit": "ng/mL"}, {"measurement": "concentration at 23 weeks", "setting": "[2]; [7]", "result": 5.6, "unit": "ng/mL"}, {"measurement": "% Change in Plasma Level", "setting": "[3]; [8]", "result": "−92.2 (3.7) %"}, {"measurement": "% Change in Plasma Level", "setting": "[3]; [7]", "result": "−93.7 (3.3) %"}, {"measurement": "% Change in Plasma Level", "setting": "[3]; Obicetrapib 10 mg + high‐intensity statin, listed as obicetrapib", "result": "−93.7", "unit": "%"}, {"measurement": "concentration at 12 weeks", "setting": "[3]; [8]", "result": 360, "unit": "ng/mL"}, {"measurement": "concentration at 16 weeks", "setting": "[3]; [8]", "result": 28.7, "unit": "ng/mL"}, {"measurement": "concentration at 12 weeks", "setting": "[3]; [7]", "result": 387, "unit": "ng/mL"}, {"measurement": "concentration at 16 weeks", "setting": "[3]; [7]", "result": 24.5, "unit": "ng/mL"}]}]}
